Laboratory results: patent US20220202811A1, “TREATMENT FOR RETINOIC ACID RECEPTOR-RELATED ORPHAN RECEPTOR Ɣ (RORƔ)-DEPENDENT CANCERS” (The Regents of the University of California, priority 2019, published 2022)
“Also recorded” adds a separate entry of the source.

Assays:
[1] = test system: pancreatic cancer cell; test: in vitro sphere formation, antagonists of Table 2; type: cell-based, mouse; design: key: ✓✓✓✓: dose response observed; growth suppressed by 8-fold or more relative to control; ✓✓✓: dose response observed; growth suppressed between 4-fold and 8-fold relative to control; ✓✓: dose response observed; growth suppressed by less than 4-fold relative to control; ✓: response observed only at highest drug dose tested; —: no detectable response; details: extent of growth suppression relative to control
Experimental: Pancreatic tumorsphere formation assays were performed and modified from (Rovira et al., 2010). Briefly, low-passage (<6 passages) WT or REM2-KP^f/fC cell lines were infected with lentiviral particles containing shRNAs; positively infected (red) cells were sorted 72 hours after transduction. 100-300 infected cells were suspended in tumorsphere media: 100 μl DMEM F-12 (Gibco, Life Technologies) containing 1× B-27 supplement (Gibco, Life Technologies), 3% FBS, 100 μM B-mercaptoethanol (Gibco, Life Technologies), 1× non-essential amino acids (Gibco, Life Technologies), 1× N2 supplement (Gibco, Life Technologies), 20 ng/ml EGF (Gibco, Life Technologies), 20 ng/ml bFGF2 (Gibco, Life Technologies), and 10 ng/ml ESGRO mLIF (Thermo Fisher). Cells in media were plated in 96-well ultra-low adhesion culture plates (Costar) and incubated at 37° C. for 7 days. KP^f/fC in vitro tumorsphere formation studies were conducted at a minimum of n=3 independent wells per cell line across two independent shRNA of n=3 wells; however, the majority of these experiments were additionally completed in >1 independently-derived cell lines n=3, at n=3 wells per shRNA.

[2] = test system: pancreatic cancer cell; test: in vivo tumor growth, antagonists of Table 2; design: species or system mouse; key: ✓✓✓✓: dose response observed; growth suppressed by 8-fold or more relative to control; ✓✓✓: dose response observed; growth suppressed between 4-fold and 8-fold relative to control; ✓✓: dose response observed; growth suppressed by less than 4-fold relative to control; ✓: response observed only at highest drug dose tested; —: no detectable response; details: extent of growth suppression relative to control
[3] = test system: KP^f/fC derived flank tumors; test: KP^f/fC flank tumors in immunocompetent mice; type: in vivo, mouse; details: gemcitabine alone
[4] = test system: primary patient-derived PDX1535 organoids; test: PDX1535 organoid assay; type: cell-based, human
Experimental: PDX1535 organoids were derived from a patient of pancreatic cancer. Primary patient organoids were established by digesting patient-derived xenografts for 1 hour at 37° C. in RPMI containing 2.5% FBS, 5 mg/ml Collagenase II, and 1.25 mg/ml Dispase II, followed by passage through a […] mesh filter. Cells were plated at a density of 1.5×10^5 cells per 50 μl Matrigel. After domes were solidified, growth medium was added as follows: RPMI containing 50% Wnt3a conditioned media, 10% RSpondin1-conditioned media, 2.5% FBS, 50 ng/ml EGF, 5 mg/ml Insulin, 12.5 ng/ml hydrocortisone, and 14 μM Rho Kinase Inhibitor. After establishment, organoids were passaged and maintained. Briefly, organoids were isolated using Cell Recovery Solution (Corning 354253), then dissociated into single cell suspension with TrypLE Express (ThermoFisher 12604) supplemented with 25 μg/ml DNase I (Roche) and 14 μM Rho Kinase Inhibitor (Y-27632, Sigma). Cells were split 1:2 into 20 μl domes plated on pre-warmed 48-well plates. Domes were incubated at 37° C. for 5 min, then covered with human complete organoid feeding media without Wnt3a-conditioned media. […] The organoids were imaged and measured at the end of treatment. […] Moreover, the anti-cancer effect of JTE-151 was determined in an organoid assay using pancreatic cancer cells derived from mice bearing primary patient-derived xenografts.

[5] = test system: primary patient-derived PDX1356 organoids; test: PDX1356 organoid assay; type: cell-based, human; details: 0.05 nM gemcitabine alone
Experimental: PDX1535 organoids were derived from a patient of pancreatic cancer. Primary patient organoids were established by digesting patient-derived xenografts for 1 hour at 37° C. in RPMI containing 2.5% FBS, 5 mg/ml Collagenase II, and 1.25 mg/ml Dispase II, followed by passage through a […] mesh filter. Cells were plated at a density of 1.5×10^5 cells per 50 μl Matrigel. After domes were solidified, growth medium was added as follows: RPMI containing 50% Wnt3a conditioned media, 10% RSpondin1-conditioned media, 2.5% FBS, 50 ng/ml EGF, 5 mg/ml Insulin, 12.5 ng/ml hydrocortisone, and 14 μM Rho Kinase Inhibitor. After establishment, organoids were passaged and maintained. Briefly, organoids were isolated using Cell Recovery Solution (Corning 354253), then dissociated into single cell suspension with TrypLE Express (ThermoFisher 12604) supplemented with 25 μg/ml DNase I (Roche) and 14 μM Rho Kinase Inhibitor (Y-27632, Sigma). Cells were split 1:2 into 20 μl domes plated on pre-warmed 48-well plates. Domes were incubated at 37° C. for 5 min, then covered with human complete organoid feeding media without Wnt3a-conditioned media.
As shown in FIGS. 65-66, the anti-cancer effect of JTE-151 was also tested using the organoid assay on primary patient-derived PDX1356 pancreatic cancer cells. […] The volume of organoids was expressed as relative to control.

| SMILES | in vitro sphere formation [1] | in vivo tumor growth [2] | other results |
| --- | --- | --- | --- |
| Cl[TeH]1(Cl)(Cl)OCCO1 [AS101] | ✓✓✓ (dose response observed; growth suppressed between 4-fold and 8-fold relative to control) | — |  |
| O=C1/C(=C/c2ccccc2)C(NC2CCCCC2)c2ccccc21 (centres unmarked) [BCl] | ✓✓ (dose response observed; growth suppressed by less than 4-fold relative to control) | — |  |
| Cc1c(F)cccc1NC(=O)Nc1ccc(Cl)c(S(=O)(=O)[C@H]2CCCNC2)c1O [Danirixin] | — |  |  |
| CCc1cc(Cl)c(OC)c(C(=O)NC[C@@H]2CCCN2CC)c1O [Eticlopride] | — | — |  |
| NCCCCCCCN=C(N)N [GC7] | ✓ |  |  |
| Oc1c(Br)cc(Br)cc1-c1[nH]c(Br)c(Br)c1Br [Pentabromopseudilin] | ✓✓ (dose response observed; growth suppressed by less than 4-fold relative to control) |  |  |
| CC(C)(C)NC(=O)c1cncn1C1CCN(c2ccc(-c3nnc(C(F)(F)F)o3)cn2)CC1 [Wnk463] | ✓✓ (dose response observed; growth suppressed by less than 4-fold relative to control) |  |  |
| Nc1ccn([C@@H]2O[C@H](CO)[C@@H](O)C2(F)F)c(=O)n1 [gemcitabine] |  |  | cancer stem cell burden [3]: no impact; organoid growth ([4]; 0.025 nM gemcitabine alone): decreased PDZ1535 organoid growth, although not statistically significant; organoid volume / growth ([4]; 0.05 nM gemcitabine alone): visibly reduced; also recorded: significant inhibition; organoid volume [5]: significant reduction; also recorded: visibly decreased; also recorded: visibly reduced |
